Reference: patent US20230233540A1, “COMBINATION OF ANTIBODY-DRUG CONJUGATE AND CDK9 INHIBITOR” (AstraZeneca UK Limited, priority 2020, published 2023)

Test system: HCC1954 breast cancer cells (HER2+ cell line)
Test: Antitumor test, subcutaneous HCC1954 breast cancer xenograft, tumor growth inhibition
Format: in vivo, CB17-SCID mice
Details: AZD4573 monotherapy in the HCC1954 model
Experimental: Tumor volume was monitored via caliper measurements, and mice were randomized based on mean tumor size. […] All AZD4573 doses were administered IP, 2 hours apart. A BID regimen was used for 10 mg/kg dose, and TID was used for 5 mg/kg dose. AZD4573 dosing was given weekly thereafter for a total of 3 cycles.
Data represents change in tumor volume over time for treatment groups.

In the case of `CC(=O)N[C@@H]1CCC[C@H](C(=O)Nc2cc(-c3cnn4c3CC(C)(C)C4)c(Cl)cn2)C1` [AZD4573, (1S,3R)-3-acetamido-N-(5-chloro-4-(5,5-dimethyl-5,6-dihydro-4H-pyrrolo[1,2-b]pyrazol-3-yl)pyridin-2-yl)cyclohexanecarboxamide], the tumor growth control is reported as “minimal tumor growth control”.
